Test results published in US10774112B2, “Biomimetic peptide and biodegradable delivery platform for the treatment of angiogenesis- and lymphangiogenesis-dependent diseases” (THE JOHNS HOPKINS UNIVERSITY, priority 2013, dated 2020).

Columns and labels:
[1] = system: VEGF-induced neovascularization; assay: rho/VEGF transgenic mice with VEGF-induced neovascularization; assay type: in vivo; details: compared to a control; FIGS. 13C-E
Method: Transgenic Mice with VEGF-Induced Neovascularization.
At postnatal day 14, hemizygous rho/VEGF mice were given an intraocular injection of 1 μL of 5% DMSO/water, 1 μL of 5% DMSO/water containing 0.1 μg or 1 μg of SP2043 (SEQ ID No: 1) in one eye. Intraocular injections were done under a dissecting microscope with a Harvard Pump Microinjection System (Harvard Apparatus, Holliston, Mass.) and pulled glass micropipettes. At postnatal day 21, the total area of subretinal neovascularization (NV) per eye was quantified. Briefly, mice were anesthetized and perfused with 1 mL of PBS containing 25 mg/mL of fluorescein-labeled dextran (average molecular weight of 2×10^6, Sigma-Aldrich, St. Louis, Mo.). The eyes were removed and fixed for 1 hour in 10% phosphate-buffered formalin. […] The retinas were examined by fluorescence microscopy at 200× magnification, which provides a narrow depth of field so that when focusing on NV on the outer surface of the retina, the remainder of the retinal vessels are out of focus, allowing easy delineation of the NV. […] By using Image analysis software (Image-Pro Plus; Media Cybernetics, Silver Spring, Md.), an investigator masked with respect to treatment group allowed the software to recognize and calculated the total area of subretinal NV per eye as previously described.

HUVEC = HUVEC tube formation assay; assay type: cell-based, human; details: 25 μM peptide; FIG. 3 A-B
Method: Tube Formation Inhibition Assays.
The compositions also were tested for their ability to inhibit tube formation, a process critical in angiogenesis. Endothelial cells spontaneously form a network of tubes when plated on extracts of extracellular matrix. This in vitro assay combines aspects of adhesion and migration and it is routinely used in angiogenesis research (Oliveira-Ferrer et al., 2008). The ability to inhibit tube formation is a comprehensive assessment of the anti-angiogenic potential. The protocol was described by Arnaoutova et al. (2009) and it consists of plating HUVEC on top of basement membrane extract. After incubation at 37° C., the cells naturally rearrange themselves in a network of tubes. Thus, 50 μL/well of Matrigel (BD Biosciences, San Jose, Calif.) was plated in a cold 96 well plate and incubated at 37° C. for 30 min for polymerization. 15,000 cells/well were added to the top of the gel and incubated in complete media in the presence or absence of peptide for 19 hours. Images were captured using the CCD Sensicam mounted on a Nikon microscope (Eclipse T-100). Assays were performed in at least two independent replicates and each replicate was performed using three experimental replicates and one image of a randomly chosen field was acquired per well.

[2] = system: microvascular endothelial cell (MEC); assay: MEC tube formation assay; assay type: cell-based; details: 25 μM peptide; FIG. 3 C-D
[3] = system: MDA-MB-231 orthotopic tumors; assay: MDA-MB-231 orthotopic tumor xenografts in SCID mice; assay type: in vivo; details: 33 days, 20 mg of SP2043/kg, intraperitoneal injection, FIG. 9
Method: Orthotopic breast tumors were initiated in SCID mice using human triple-negative breast cancer cells MDA-MB-231. 2×10^6 cells per 100 μL aliquot of single cell suspension were injected in the breast mammary fat pad. Tumors reached volumes of 75-100 mm^3 in approximately 14-21 days. Mice were randomized and arranged in groups (8 mice per group) with similar tumor volumes (no statistical difference among averages) and treatment was commenced. […] Tumors were measured every fourth day using calipers and the tumor volume was calculated using the formula V=ab^2/2, where “a” is the larger and “b” is the smaller diameter.

[4] = system: choroidal neovascularization; assay: Laser induced choroidal neovascularization (CNV) model; assay type: in vivo, mice
Method: Mouse Model of Choroidal Neovascularization (CNV).
Laser photocoagulation-induced rupture of Bruch's membrane was used to generate CNV. Briefly, 4-5 week old female C57BL/6J mice were anesthetized with xylazine hydrochloride (10 mg/kg) and ketamine hydrochloride (50 mg/kg) and the pupils were dilated with 1% tropicamide (Alcon Labs, Inc., Fort Worth, Tex., USA). Three burns of 532-nm diode laser photocoagulation (75 μm spot size, 0.1 s duration, 120 mW) were delivered to each retina using the slit lamp delivery system of an OcuLight GL Photocoagulator (Index, Mountain View, Calif., USA) and a hand-held cover slide as a contact lens. Burns were performed in the 9, 12 and 3 o'clock positions of the posterior pole of the retina. Production of a bubble at the time of laser photocoagulation, which indicates rupture of Bruch's membrane, is an important factor in obtaining CNV, so only burns in which a bubble was produced were included in the study. Treatments were begun seven days after laser photocoagulation and included intravitreous injections of 0.1% of SP2043 (SEQ ID NO: 1) (1 μg in a volume of 1 μL), 1% ([…] in a volume of 1 μL of SP2043 (SEQ ID NO: 1)) or vehicle under a dissecting microscope with a Harvard Pump Microinjection System (Harvard Apparatus, Holliston, Mass.) and pulled glass micropipettes. Some mice were euthanized for baseline measurement. Fourteen days after laser, the remaining mice were used to measure the amount of CNV at Bruch's membrane rupture sites. Two weeks after rupture of Bruch's membrane, mice were anesthetized and perfused with fluorescein-labeled dextran (2×10^6 average mol wt, Sigma-Aldrich, St. Louis, Mo., USA) and choroidal flat mounts were prepared as described previously. Briefly, the eyes were removed, fixed for 1 h in 10% phosphate-buffered formalin, and the cornea and lens were removed. […] Flat mounts were examined by fluorescence microscopy using an Axioskop microscope (Zeiss, Thornwood, N.Y., USA) and images were digitized using a 3 CCD color video camera (IK-TU40A, Toshiba, Tokyo, Japan) and a frame grabber. […]

## LRRFSTAPFAFIDINDVINF (Artificial sequence based on human Collagen Type IV protein) [SP2043]
[1]
  neovascularization in rho-VEGF mouse model: inhibited
HUVEC
  HUVEC tube formation: inhibit
[2]
  MEC tube formation: inhibit
[3]
  inhibition of tumor growth: about 82%
[4]; laser-induced choroidal neovascularization model in mice, FIG. 28
  effect in combination with other anti-angiogenesis agents, such as aflibercept: increased effect
[4]; mouse, FIGS. 13A-B
  neovascularization in laser induced CNV model: inhibited
  potency in laser induced CNV model compared with aflibercept: more potently than aflibercept
